Test results as given in patent US10800792B2, “Inhibitors of Bruton's tyrosine kinase and method of their use” (JANSSEN PHARMACEUTICA NV, priority 2015, dated 2020).

Biological target: unphosphorylated-BTK kinase domain (UP-BTK), GST-tagged human BTK (389-659aa) (Homo sapiens (Human), UniProt Q06187)
Assay: BTK kinase Lanthascreen binding assay
Settings: Lanthascreen tracer competition, 60 minutes incubation; pIC50 = negative log of the IC50 in molar
Method in brief: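 A fluorescent tracer is bound to unphosphorylated BTK; test compound is added to compete it off; the Lanthascreen signal is read and IC50 is fitted, then reported as its negative log in molar.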

unphosphorylated-BTK kinase domain (UP-BTK), GST-tagged human BTK (389-659aa), sequence (Q06187 389-659): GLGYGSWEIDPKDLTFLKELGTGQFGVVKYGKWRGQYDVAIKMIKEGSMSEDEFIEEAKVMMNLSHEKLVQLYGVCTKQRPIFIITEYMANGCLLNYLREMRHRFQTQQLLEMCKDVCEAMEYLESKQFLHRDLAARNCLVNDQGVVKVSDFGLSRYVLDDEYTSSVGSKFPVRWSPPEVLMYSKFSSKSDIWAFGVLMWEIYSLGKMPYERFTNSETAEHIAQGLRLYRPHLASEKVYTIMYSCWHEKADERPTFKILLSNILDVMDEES

First: C=CC(=O)N1CCC[C@@H](NC(=O)c2sc3nccc4c3c2NC(=O)N4c2cc(-c3ccccc3)cnn2)C1 [Example 751, (R)—N-(1-Acryloylpiperidin-3-yl)-4-oxo-5-(5-phenylpyridazin-3-yl)-4,5-dihydro-3H-1-thia-3,5,8-triazaacenaphthylene-2-carboxamide]
Second: C=CC(=O)N1CCC[C@@H](NC(=O)c2sc3nccc4c3c2NC(=O)N4c2ccc(Oc3ccccn3)cc2C)C1 [Example 778, (R)—N-(1-Acryloylpiperidin-3-yl)-5-(2-methyl-4-(pyridin-2-yloxy)phenyl)-4-oxo-4,5-dihydro-3H-1-thia-3,5,8-triazaacenaphthylene-2-carboxamide]
The “BTK_I_binding pIC50” value of the first is lower: 6.7 for the first, 8.0 for the second.

`C=CC(=O)N1CCC[C@@H](NC(=O)c2sc3nccc4c3c2NC(=O)N4c2ccc(O[C@@H]3CCOC3)cc2C)C1` [Example 787, N—((R)-1-Acryloylpiperidin-3-yl)-5-(2-methyl-4-(((R)-tetrahydrofuran-3-yl)oxy)phenyl)-4-oxo-4,5-dihydro-3H-1-thia-3,5,8-triazaacenaphthylene-2-carboxamide] and `C=CC(=O)N1CCC[C@@H](NC(=O)c2sc3nccc4c3c2NC(=O)N4c2cccc(C3CCOCC3)c2)C1` [Example 708, (R)—N-(1-Acryloylpiperidin-3-yl)-4-oxo-5-(3-(tetrahydro-2H-pyran-4-yl)phenyl)-4,5-dihydro-3H-1-thia-3,5,8-triazaacenaphthylene-2-carboxamide] are within 0.2 log units of each other in “BTK_I_binding pIC50” value: 6.6 for the first, 6.5 for the second.

Going from `Cc1ccc(-c2ccccc2)cc1N1C(=O)Nc2c(C(=O)N[C@@H]3CCCNC3)sc3nccc1c23` [Example 725, (R)-5-(4-Methyl-[1,1′-biphenyl]-3-yl)-4-oxo-N-(piperidin-3-yl)-4,5-dihydro-3H-1-thia-3,5,8-triazaacenaphthylene-2-carboxamide] to `Cc1ccccc1N1C(=O)Nc2c(C(=O)N[C@@H]3CCCN(C(=O)/C(C#N)=C/C4CC4)C3)sc3nccc1c23` [Example 854, (R,E)-N-(1-(2-Cyano-3-cyclopropylacryloyl)piperidin-3-yl)-4-oxo-5-(o-tolyl)-4,5-dihydro-3H-1-thia-3,5,8-triazaacenaphthylene-2-carboxamide], the “BTK_I_binding pIC50” value rises from 6.1 to 7.5.

With `N#C/C(=C\C1CC1)C(=O)N1CCC[C@@H](NC(=O)c2sc3nccc4c3c2NC(=O)N4c2cccc(Oc3ccccc3)c2)C1` [Example 840, (R,E)-N-(1-(2-Cyano-3-cyclopropylacryloyl)piperidin-3-yl)-4-oxo-5-(3-phenoxyphenyl)-4,5-dihydro-3H-1-thia-3,5,8-triazaacenaphthylene-2-carboxamide] the “BTK_I_binding pIC50” value was 7.8.

In the case of `O=C(N[C@@H]1CCCNC1)c1sc2nccc3c2c1NC(=O)N3c1cnnc(-c2ccccc2)c1` [Example 740, (R)-4-Oxo-5-(6-phenylpyridazin-4-yl)-N-(piperidin-3-yl)-4,5-dihydro-3H-1-thia-3,5,8-triazaacenaphthylene-2-carboxamide], the “BTK_I_binding pIC50” value is reported as under 6.
For `CC(C)(C)S(=O)(=O)c1ccc(N2C(=O)Nc3c(C(=O)N[C@@H]4CCCNC4)sc4nccc2c34)cc1` [Example 650, (R)-5-(4-(tert-Butylsulfonyl)phenyl)-4-oxo-N-(piperidin-3-yl)-4,5-dihydro-3H-1-thia-3,5,8-triazaacenaphthylene-2-carboxamide], the “BTK_I_binding pIC50” value was under 5.

Same assay, conditions: Lanthascreen tracer competition, 60 minutes incubation; pIC50 = negative log of the IC50 in molar; read-out: BTK_I_binding pIC50 (converted)

`C=CC(=O)N1CCC[C@@H](NC(=O)c2sc3nccc4c3c2NC(=O)N4c2cnc(CC(C)C)cc2C)C1` (mixture of isomers) [Example 671, (R)—N-(1-Acryloylpiperidin-3-yl)-5-(6-isobutyl-4-methylpyridin-3-yl)-4-oxo-4,5-dihydro-3H-1-thia-3,5,8-triazaacenaphthylene-2-carboxamide] gave an IC50 of 25.1 nM.

Same assay, conditions: pIC50 = negative log of the IC50 in molar; 60 minutes incubation, 50 nM Tracer 236

Compared with `Cc1cc(Oc2ccccc2)ccc1N1C(=O)Nc2c(C(=O)NC3CN(C(C)C)C3)sc3nccc1c23` [Example 273, N-(1-Isopropylazetidin-3-yl)-5-(2-methyl-4-phenoxyphenyl)-4-oxo-4,5-dihydro-3H-1-thia-3,5,8-triazaacenaphthylene-2-carboxamide], `Cc1cc(Oc2ccccc2)ccc1N1C(=O)Nc2c(C(=O)N[C@@H]3CCCN(C(C)C)C3)sc3nccc1c23` [Example 101, (R)—N-(1-Isopropylpiperidin-3-yl)-5-(2-methyl-4-phenoxyphenyl)-4-oxo-4,5-dihydro-3H-1-thia-3,5,8-triazaacenaphthylene-2-carboxamide] is higher in “BTK_I_binding pIC50” value: 6.3 for the first, 6.8 for the second.

`Cc1cc(Oc2ccccc2)ccc1N1C(=O)Nc2c(C(=O)NCCN3CCOCC3)sc3nccc1c23` [Example 275, 5-(2-Methyl-4-phenoxyphenyl)-N-(2-morpholinoethyl)-4-oxo-4,5-dihydro-3H-1-thia-3,5,8-triazaacenaphthylene-2-carboxamide] and `CCN1CC(NC(=O)c2sc3nccc4c3c2NC(=O)N4c2ccc(Oc3ccccc3)cc2C)C1` [Example 251, N-(1-Ethylazetidin-3-yl)-5-(2-methyl-4-phenoxyphenyl)-4-oxo-4,5-dihydro-3H-1-thia-3,5,8-triazaacenaphthylene-2-carboxamide] are within 0.2 log units of each other in “BTK_I_binding pIC50” value: 6.3 for the first, 6.4 for the second.

Same assay, conditions: unphosphorylated-BTK kinase domain, 50 nM Tracer 236, 60 minutes; pIC50 = negative log of the IC50 in molar

Going from `C=CC(=O)N1CCC[C@@H](NC(=O)c2sc3nccc4c3c2NC(=O)N4c2ccc(C(C)C)cc2C)C1` [Example 444, (R)—N-(1-Acryloylpiperidin-3-yl)-5-(4-isopropyl-2-methylphenyl)-4-oxo-4,5-dihydro-3H-1-thia-3,5,8-triazaacenaphthylene-2-carboxamide] to `C=CC(=O)N1CCC[C@@H](NC(=O)c2sc3nccc4c3c2NC(=O)N4c2cncc(-c3ccccc3)c2)C1` [Example 537, (R)—N-(1-Acryloylpiperidin-3-yl)-4-oxo-5-(5-phenylpyridin-3-yl)-4,5-dihydro-3H-1-thia-3,5,8-triazaacenaphthylene-2-carboxamide], the “BTK_I_binding pIC50” value rises from 7.2 to 7.6.

Compared with `O=C(N[C@@H]1CCCNC1)c1sc2nccc3c2c1NC(=O)N3c1cccc(-c2ccccc2)c1` [Example 426, (R)-5-([1,1′-Biphenyl]-3-yl)-4-oxo-N-(piperidin-3-yl)-4,5-dihydro-3H-1-thia-3,5,8-triazaacenaphthylene-2-carboxamide], `O=C(N[C@@H]1CCCNC1)c1sc2nccc3c2c1NC(=O)N3c1cccc(Cc2ccccc2)c1` [Example 465, (R)-5-(3-Benzylphenyl)-4-oxo-N-(piperidin-3-yl)-4,5-dihydro-3H-1-thia-3,5,8-triazaacenaphthylene-2-carboxamide] is lower in “BTK_I_binding pIC50” value: 6.9 for the first, 6.2 for the second.

First: O=C(N[C@@H]1CCCNC1)c1sc2nccc3c2c1NC(=O)N3c1cc(Cl)cc(Cl)c1 [Example 330, (R)-5-(3,5-Dichlorophenyl)-4-oxo-N-(piperidin-3-yl)-4,5-dihydro-3H-1-thia-3,5,8-triazaacenaphthylene-2-carboxamide]
Second: C=CC(=O)N1CCC[C@@H](NC(=O)c2sc3nccc4c3c2NC(=O)N4c2cccc(-c3cccnc3)c2)C1 [Example 538, (R)—N-(1-Acryloylpiperidin-3-yl)-4-oxo-5-(3-(pyridin-3-yl)phenyl)-4,5-dihydro-3H-1-thia-3,5,8-triazaacenaphthylene-2-carboxamide]
The “BTK_I_binding pIC50” value of the first is lower: 5.6 for the first, 7.0 for the second.

`Cc1cc(Oc2ccccc2)ccc1N1C(=O)Nc2c(C(=O)N[C@@H]3CCCN(C(=O)/C=C/CN(C)C)C3)sc3nccc1c23` [Example 371, (R,E)-N-(1-(4-(Dimethylamino)but-2-enoyl)piperidin-3-yl)-5-(2-methyl-4-phenoxyphenyl)-4-oxo-4,5-dihydro-3H-1-thia-3,5,8-triazaacenaphthylene-2-carboxamide] and `COC(C)(C)CC(=O)N1CCC[C@@H](NC(=O)c2sc3nccc4c3c2NC(=O)N4c2ccc(Oc3ccccc3)cc2C)C1` [Example 363, (R)—N-(1-(3-Methoxy-3-methylbutanoyl)piperidin-3-yl)-5-(2-methyl-4-phenoxyphenyl)-4-oxo-4,5-dihydro-3H-1-thia-3,5,8-triazaacenaphthylene-2-carboxamide] are within 0.2 log units of each other in “BTK_I_binding pIC50” value: 7.0 for the first, 6.9 for the second.

Going from `Cc1cc(Oc2ccc(F)cc2F)ccc1N1C(=O)Nc2c(C(=O)N[C@@H]3CCCN(C)C3)sc3nccc1c23` [Example 302, (R)-5-(4-(2,4-Difluorophenoxy)-2-methylphenyl)-N-(1-methylpiperidin-3-yl)-4-oxo-4,5-dihydro-3H-1-thia-3,5,8-triazaacenaphthylene-2-carboxamide] to `N#C/C(=C\C1CC1)C(=O)N1CCC[C@@H](NC(=O)c2sc3nccc4c3c2NC(=O)N4c2ccnc(-c3ccccc3)c2)C1` [Example 559, (R,E)-N-(1-(2-Cyano-3-cyclopropylacryloyl)piperidin-3-yl)-4-oxo-5-(2-phenylpyridin-4-yl)-4,5-dihydro-3H-1-thia-3,5,8-triazaacenaphthylene-2-carboxamide], the “BTK_I_binding pIC50” value rises from 6.0 to 8.2.

In the case of `CO[C@H]1CNC[C@@H]1NC(=O)c1sc2nccc3c2c1NC(=O)N3c1ccc(Oc2ccccc2)cc1` [Example 588, N-((3S,4S)-4-Methoxypyrrolidin-3-yl)-4-oxo-5-(4-phenoxyphenyl)-4,5-dihydro-3H-1-thia-3,5,8-triazaacenaphthylene-2-carboxamide], the “BTK_I_binding pIC50” value is reported as 6.4.

`CCC(=O)N1CCC[C@@H](NC(=O)c2sc3nccc4c3c2NC(=O)N4c2ccc(Oc3ccccc3)cc2C)C1` (single isomer, unassigned) [Example 345, (R)-5-(*R)-(2-Methyl-4-phenoxyphenyl)-4-oxo-N-(1-propionylpiperidin-3-yl)-4,5-dihydro-3H-1-thia-3,5,8-triazaacenaphthylene-2-carboxamide] was tested, and the “BTK_I_binding pIC50” value was under 5.
With `O=C(N[C@@H]1CCCNC1)c1sc2nccc3c2c1NC(=O)N3c1ccc2ccccc2c1` [Example 429, (R)-5-(Naphthalen-2-yl)-4-oxo-N-(piperidin-3-yl)-4,5-dihydro-3H-1-thia-3,5,8-triazaacenaphthylene-2-carboxamide] the “BTK_I_binding pIC50” value was under 5.
